Here are results for 92 compounds from PubChem BioAssay AID1902 (Broad Institute, 2009).

The source made the active and inactive calls.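 The calls were made as follows: active = EC50 no more than a set limit of log units above the highest dose; inactive = the rest.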

The assay has as its target S. pyogenes SKKanGAS, kanamycin survival, BacTiterGlo, 6 h. In words: S. pyogenes SKKanGAS kanamycin growth inhibitors – SKKanGAS strain, luminescence, dose confirmation, streptokinase promoter inhibitor project, dose response (AID 1902).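 Also: lower survival reflects blocked streptokinase promoter driving kanamycin resistance gene.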
In the case of `CCC(C(=O)NCCCN1CCCC1=O)n1c2ccccc2c2nc(=O)cc(C)n21` (configuration not stated), the EC50 was > 15000 nM (inactive).

Consider `O=C(NC(NC(=S)Nc1c(Cl)cccc1Cl)C(Cl)(Cl)Cl)OCc1ccccc1` (configuration not stated), for which the EC50 is 2500 nM.

Turning to `O=C(CSC(=S)N1CCOCC1)c1cc(Br)cc(Br)c1O`, the EC50 is > 15000 nM (inactive).

On to `Cc1ccc(-c2[nH]nc(N)c2N=Nc2ccccc2C)cc1`, for which the EC50 was 1080 nM.

`Cc1c(C(=O)Nc2nc3ccccc3[nH]2)oc2c(Cl)cccc12`: the EC50 was 727 nM.

Consider `Cc1cc(C)c2[nH]c(O)c(N=Nc3ccc(C(=O)O)cc3)c2c1`, for which the EC50 was 1800 nM.

Regarding `Oc1nc(Nc2ccc(F)cc2)sc1/C=C1\C=Nc2ccccc21`, the EC50 was 8880 nM.

As for `CCc1nc2c3cnn(-c4cc(Cl)ccc4C)c3ncn2n1`, the EC50 was 12800 nM.

Consider `O=C(N/N=C/c1cc(Br)cc([N+](=O)[O-])c1O)c1ccc(NC(=O)c2ccc(F)cc2)cc1`, for which the EC50 is 4000 nM.

As for `O=C(Nc1ccc(F)c(Cl)c1)Nc1csc2ccccc12`, the EC50 was 2790 nM.

As to `CCCCCCC(=O)N/N=C/c1c(O)n(C(C)CC)c(=S)[nH]c1=O` (configuration not stated), the EC50 was 3220 nM.

On to `COC(=O)c1c(NC(=O)COc2ccc(Cl)cc2)sc2c1CC(C)(C)NC2(C)C`, for which the EC50 is 12500 nM.

In the case of `COc1ccccc1NS(=O)(=O)c1cc(NC(=S)NCC2CCCO2)ccc1C` (configuration not stated), the EC50 is > 15000 nM (inactive).

As to `Cc1ccccc1/C=C1\Sc2ccc(C(=O)N3CCN(c4ccccn4)CC3)cc2N(C)C1=O`, the EC50 was 6470 nM.

Turning to `Cc1ccc2ccc(C(Nc3ccccn3)c3ccccc3)c(O)c2n1` (configuration not stated), the EC50 is 705 nM.

Consider `O=C(Nc1nc(-c2ccccn2)cs1)C1CC1`, for which the half-maximal effective concentration (EC50) was 1330 nM.

Take `COC(=O)c1ccc(NC(=O)c2nc(S(=O)(=O)Cc3cccc(C)c3)ncc2Cl)cc1`: the EC50 was 1040 nM.

As for `Cc1nnc(SCC2=C(C(=O)O)N3C(=O)C(NC(=O)Cn4nc(C)c(Cl)c4C)C3SC2)s1` (configuration not stated), the EC50 is less than 60 nM.

For `CC1C/C(=N\NC(=S)NCc2ccccc2)CC(C)(C)C1` (configuration not stated), the EC50 was 3960 nM.

As for `c1ccc(Nc2nc3ccccc3[nH]2)nc1`, the EC50 was 1460 nM.

As for `COc1ccc(OC)c(/C=C/c2ccc3cccc(O)c3n2)c1`, the EC50 was 197 nM.

For the compound `CC(=O)OCC1=C(C(=O)O)N2C(=O)C(NC(=O)c3ccc(COc4cccc(Cl)c4Cl)o3)C2SC1` (configuration not stated), the EC50 was 2790 nM.

For the compound `Cc1ccc(SC/C(O)=C(\C#N)c2nc3ccccc3s2)cc1`, the EC50 is 2820 nM.

Consider `Cc1ccc(Cl)cc1NC1=C/C(=N\S(=O)(=O)c2cccs2)c2ccccc2C1=O`, for which the EC50 is 908 nM.

For `CCCc1nc(NCc2ccccc2)c(C#N)c2c1CCCC2`, the EC50 was 2930 nM.

Turning to `COc1ccc(N2CCN(C(=S)NC(=O)c3cccs3)CC2)c([N+](=O)[O-])c1`, the EC50 is 6200 nM.

For the compound `CC(C)(C)c1ccc(Cn2ccc(-c3ccc4c(c3)OCO4)n2)cc1`, the EC50 is 7090 nM.

For `CCCC1=NN2C(=N)/C(=C\c3cc(C)n(-c4cc(C)cc(C)c4)c3C)C(=O)N=C2S1`, the EC50 is 1830 nM.

On to `O=C(N/N=C/c1cc(O)ccc1Br)c1cccnc1`, for which the EC50 was 2880 nM.

Regarding `O=c1c2cc(N3CCOCC3)ccc2[nH]c(=S)n1CCc1ccccc1`, the EC50 was 482 nM.

Regarding `CC(/C=C1\SC(=S)N(CCCC(=O)Nc2ccc(C(=O)O)cc2)C1=O)=C\c1ccccc1`, the EC50 was 190 nM.

For the compound `CC[C@@H](C)[C@H](CNC)NC[C@@H](Cc1cccc2ccccc12)NCCc1cccc(C(F)(F)F)c1`, the EC50 was 2440 nM.

As to `C[C@H]1[C@H](C)CC[C@]2(C(=O)O)CC[C@]3(C)C(=CC[C@@H]4[C@@]5(C)C[C@@H](O)[C@H](O)C(C)(C)[C@@H]5CC[C@]43C)[C@H]12`, the EC50 was 2810 nM.

For the compound `FC(F)(F)c1cccc(NC(=S)NNC(=S)Nc2cccc(C(F)(F)F)c2)c1`, the EC50 was 804 nM.

For the compound `Oc1c(CN2CCN(c3ccccc3)CC2)cc(Br)c2cccnc12`, the EC50 is 1670 nM.

On to `CC1CCN(c2nc(-c3ccccc3)cc(C(F)(F)F)n2)CC1`, for which the EC50 was 4580 nM.

As to `Cc1ccc2nc(-c3ccc(NS(=O)(=O)c4ccc(F)c(F)c4)cc3)sc2c1`, the EC50 is 2690 nM.

With `OC(COc1cccc2ccccc12)CN1CCN(c2ccc(Cl)cc2)CC1` (configuration not stated), the EC50 is 15400 nM.

As to `COc1ccc(C(=O)Nc2sc(C)c(-c3ccccc3)c2C#N)cc1OC`, the EC50 is 13300 nM.

Regarding `COc1cc(/C=C2\SC(=Nc3ccccc3)N(CCc3c[nH]c4ccccc34)C2=O)ccc1OC(C)C(=O)O` (configuration not stated), the EC50 is 1420 nM.

Take `CN1C(=O)/C(=C/c2cccn2-c2ccc3ccccc3c2)C(=O)NC1=S`: the EC50 is 5740 nM.

Consider `CC1COc2c(N3CCN(C)CC3)c(F)cc3c(=O)c(C(=O)O)cn1c23` (configuration not stated), for which the EC50 was 3690 nM.

As for `COc1c(N2CCN(C(=S)NC3CC4CCC3C4)C(C)C2)c(F)cc2c(=O)c(C(=O)O)cn(C3CC3)c12` (configuration not stated), the EC50 is 3090 nM.

With `Cc1cccc(C(=O)NC(C(=O)Nc2nc(-c3ccccn3)cs2)C(C)C)c1` (configuration not stated), the EC50 was 5460 nM.

As for `CCC(C)c1ccc(C2C3=C(Nc4nc(N)[nH]c(=O)c42)c2ccccc2C3=O)cc1` (configuration not stated), the EC50 was 3710 nM.

On to `COc1ccc(OC)c2[nH]c(C(=O)N/N=C/c3ccccc3O)cc12`, for which the EC50 is 1640 nM.

In the case of `O=C(Nc1ccc(OC(F)(F)F)cc1)C1CCCN(S(=O)(=O)c2cnc[nH]2)C1` (configuration not stated), the EC50 is > 15000 nM (inactive).

In the case of `CCN(CC)c1ccc(C=N/C(C#N)=C(\N)C#N)cc1`, the EC50 is > 15000 nM (inactive).

Consider `O=C(COc1cccc(Oc2ccccc2)c1)Nc1ccc(SC(F)F)cc1`, for which the EC50 is 13000 nM.

In the case of `CC(C)Cn1c(O)c(N=NC(=O)c2cccc(S(=O)(=O)N3CCCCC3)c2)c2ccccc21`, the EC50 is 6040 nM.

On to `O=C(/C=C/c1ccccc1)NCCc1ccccc1`, for which the EC50 was > 15000 nM (inactive).

Take `COc1ccc(C(=O)c2ccc(N3CCN(C4CC(=O)NC4=O)CC3)cc2)cc1F` (configuration not stated): the EC50 is 2760 nM.

Turning to `C/C(=N\NC(=O)c1cc2ccccc2cc1O)c1cc2ccccc2o1`, the EC50 was 1460 nM.

With `CCCC(=O)NC(c1ccco1)c1cc(Cl)c2cccnc2c1O` (configuration not stated), the EC50 is 1500 nM.

Regarding `Cc1cc(C(F)(F)F)c(C#N)c(SCC(=O)Nc2nc3cc(Br)ccc3s2)n1`, the EC50 is 5700 nM.

With `CCOc1ccc(N(C)c2ccc(/C=C3/SC(=S)NC3=O)cc2)cc1`, the EC50 was 4300 nM.

`Cc1ccc(-c2nn(CCC(=O)O)cc2/C=C\C(=O)c2ccc(Br)cc2)cc1`: the EC50 was 6540 nM.

For `Cc1c(C(=O)Nc2ccc(Oc3ccccc3)cc2)sc2nc3n(c(=O)c12)CCC3`, the EC50 was 6210 nM.

As to `COc1ccc(Br)cc1/C=C/c1ccc2cccc(O)c2n1`, the EC50 is 138 nM.

In the case of `COCC1CCN(C(=O)CCc2nnc(C3(c4ccc(Cl)cc4)CCC3)o2)C1` (configuration not stated), the EC50 is > 15000 nM (inactive).

`Cc1nc2c(=O)n(C)c(=O)nc-2n(C)n1`: the EC50 was 2770 nM.

Take `Cc1ccc(C(=O)CC(=O)c2ccccc2C)c(O)c1`: the EC50 is 5180 nM.

`Cc1cc(=O)oc2cc(OCC(=O)N3CCN(C(=O)C4COc5ccccc5O4)CC3)ccc12` (configuration not stated): the concentration giving a half-maximal response (EC50) is 3160 nM.

On to `CCOC(=O)c1c(N)sc(C(O)(C(F)(F)F)C(F)(F)F)c1-c1ccc(Cl)cc1`, for which the EC50 is 3170 nM.

In the case of `Oc1c(Br)cc(Br)cc1Oc1ccc(Br)cc1Br`, the EC50 is 1760 nM.

In the case of `Clc1ccc2c(N/N=C/c3ccc(Br)cc3)ccnc2c1`, the EC50 was 3140 nM.

In the case of `S=C(NCCSCc1ccc(Cl)c(Cl)c1)Nc1ccccc1`, the EC50 was 3710 nM.

Consider `c1ccc(-c2nc(C3CCCCC3)c3ccccc3n2)cc1`, for which the EC50 is 3870 nM.

For the compound `CC1=C(C(=O)O)N2C(=O)C(NC(=O)Cc3ccccc3)C2SC1` (configuration not stated), the EC50 was 1030 nM.

`O=S(=O)(Nc1nc2ccccc2nc1Cl)c1ccc2ccccc2c1`: the EC50 is > 5000 nM (inactive).

For `O=[N+]([O-])c1ccc(NCc2ccc(Cl)cc2)c2ccncc12`, the EC50 was 9290 nM.

With `CCN(CC)S(=O)(=O)c1ccc(N2CCOCC2)c(NC(=O)C2CSC3(C)CCC(=O)N23)c1` (configuration not stated), the EC50 is > 15000 nM (inactive).

With `Cc1ccc2ccc(C(Nc3cccc(C(F)(F)F)c3)c3cccnc3)c(O)c2n1` (configuration not stated), the EC50 is 1120 nM.

As to `CC(NS(=O)(=O)OCC(Cl)(Cl)Cl)c1ccc(C(C)(C)C)cc1` (configuration not stated), the EC50 is 4640 nM.

With `O=C(/C=C/c1ccccc1)NC(=S)NNC(=O)Cc1cccs1`, the EC50 is 1470 nM.

For the compound `COc1ccccc1Oc1cn[nH]c1-c1ccc(OCC(=O)NN)cc1O`, the EC50 is > 15000 nM (inactive).

`Fc1ccc2nc(Nc3nc4cc5c(cc4s3)OCO5)sc2c1`: the EC50 is 2630 nM.

With `CC(=O)N1CCc2cc(S(=O)(=O)N3CCc4ccccc43)ccc21`, the EC50 was > 15000 nM (inactive).

Consider `O=C(Nc1nc(-c2ccccn2)cs1)c1cccc(-n2cnnn2)c1`, for which the EC50 is 2300 nM.

As for `CCCCCCn1c(=O)c(C(=O)Nc2c(C)n(C)n(-c3ccccc3)c2=O)c(O)c2ccccc21`, the EC50 is 2590 nM.

In the case of `Cc1nn(-c2ccccc2)c2sc(C(=O)N3CCc4ccccc4C3)cc12`, the EC50 was 4160 nM.

In the case of `Cn1cc(C(=O)c2ccc(Cl)cc2Cl)cc1C(=O)N/N=C(\N)COc1cccc(C(F)(F)F)c1`, the EC50 is 3220 nM.

Regarding `COC(=O)C1=C(C)NC2=C(C(=O)c3ccccc32)C1c1ccc(-c2ccc(C(=O)O)cc2)o1` (configuration not stated), the EC50 was 2760 nM.

On to `CN=C(Nc1cc(Cl)ccc1Cl)SC1CC(=O)N(c2ccc(C(=O)OC)cc2)C1=O` (configuration not stated), for which the EC50 was 7400 nM.

With `Cc1cc(N2C(=O)C(O)=C(C(=O)c3cc4ccccc4o3)C2c2cccc(Cl)c2)no1` (configuration not stated), the EC50 was 1330 nM.

Take `COc1ccc(NC(=O)CN(C)C(=O)/C=C/c2cn(-c3ccccc3)nc2-c2ccc(C)cc2)cc1`: the EC50 is 8680 nM.

For `O=C(CP(=O)(c1ccccc1)c1ccccc1)N/N=C/c1cc(Br)cc(Br)c1O`, the EC50 is 804 nM.

As for `CC(=O)OCCCNc1cc(Sc2nc3ccccc3s2)c2nonc2c1[N+](=O)[O-]`, the half-maximal effective concentration (EC50) was 2430 nM.

As for `O=C(NC(NC(=S)Nc1cccc(Cl)c1)C(Cl)(Cl)Cl)OCc1ccccc1` (configuration not stated), the EC50 was 1780 nM.

As to `CCC(=O)N1N=C(c2c(O)n(CCc3ccccc3)c(=O)[nH]c2=O)CC1c1ccc(OC)c(OC)c1` (configuration not stated), the EC50 was 991 nM.

In the case of `O=C(N/N=C/c1cc([N+](=O)[O-])cc(Br)c1O)C12CC3CCC(CC(C3)C1)C2`, the EC50 is 5070 nM.

On to `CC1(C(=O)OCC(=O)Nc2nc(-c3ccc(F)c(F)c3)cs2)CC1(Cl)Cl` (configuration not stated), for which the EC50 was 6720 nM.
